Data: patent US20240207302A1, “ANTIVIRAL COMPOUNDS, METHODS FOR THE MANUFACTURING OF COMPOUNDS, ANTIVIRAL PHARMACEUTICAL COMPOSITION, USE OF THE COMPOUNDS AND METHOD FOR THE ORAL TREATMENT OF CORONAVIRUS INFECTION AND RELATED DISEASES THEREOF” (priority 2021, published 2024)
Where two headings read alike, the source gives them in different places.

Key:
[1] = test system: Salmonella typhimirium TA 97a, TA 98, TA 100, TA 102 and TA 1535; experiment: Bacterial reverse mutation (Ames) test
[2] = test system: mouse bone marrow polychromatic erythrocytes; experiment: Micronucleus test in mouse bone marrow; type: in vivo; conditions: mice; 25 mg/Kg i.p.
Description: The ratio of polychromatic to normochromatic erythrocytes and the count of micronuclei were determined. This assay was conducted in compliance with the GLP principles.

[3] = test system: SARS-COV-2; experiment: Combination with SARS-COV-2 nsp14 (exonuclease) inhibitors in Calu-3 cells, infectious virus titers; type: cell-based; conditions: for EC50 / EC90 / EC99 mean: Calu-3, alone or in combination as labelled; for effect on SARS-COV-2 replication / effect of co-treatment with raltegravir or dolutegravir (iEXO) on inhibition of SARS-COV-2: calu-3; for effect on SARS-COV-2 replication: 5 μM; for effect of co-treatment with raltegravir or dolutegravir (iEXO) on inhibition of SARS-COV-2: drug 10 μM, raltegravir or dolutegravir 5 μM
[4] = Cytotoxicity assay (XTT) in Calu-3 cells; type: cell-based, human; conditions: human
Description: (§1) In parallel, cytotoxicity assays were performed.

[5] = test system: SARS-COV-2; experiment: SARS-COV-2 viral RNA synthesis in Calu-3 cells (real time RT-PCR); type: cell-based; conditions: 1.0 μM
[6] = test system: SARS-COV-2; conditions: for SI: CC50/EC50
[7] = test system: SARS-COV-2; experiment: SARS-COV-2 RNA loads in human primary monocytes; type: cell-based; conditions: 24 h
Description: (§2) FIG. 5A, 5B and 5C. The compounds impair SARS-COV-2 RNA synthesis and SARS-COV-2-induced release of inflammatory mediators in human primary monocytes.
(§3) Human primary monocytes were obtained after 3 h of plastic adherence of peripheral blood mononuclear cells (PBMCs). PBMCs were isolated from healthy donors by density gradient centrifugation (Ficoll-Paque, GE Healthcare). PBMCs (2.0×10^6 cells) were plated onto 48-well plates (NalgeNunc) in RPMI-1640 without serum for 2 to 4 h. Non-adherent cells were removed, and the remaining monocytes were maintained in DMEM with 5% human serum (HS; Millipore) and penicillin/streptomycin. Monocytes were infected at MOI of 0.1. After 1 h inoculation period, cells were washed with phosphate saline buffer (PBS) to remove unbounded viruses and treated with 1 μM of the indicated compounds. After 24 h after infection, cell monolayers werc lysed total viral RNA was extracted, quantitative RT-PCR was performed, to detect the SARS-COV-2 and the housekeeping gene RNAse P.

[8] = test system: Calu-3 cells; experiment: Cytotoxicity assay (XTT) in Calu-3 cells; type: cell-based, human
Description: as §1

[9] = Cytotoxicity assay (XTT) in Huh-7 cells; type: cell-based; conditions: human
Description: In parallel, cytotoxicity assays were performed. Monolayers of 1.5×10^4 cells in 96-well plates were treated for 3 days with various concentrations (semi-log dilutions from 1,000 to 10 μM) of the antiviral drugs. Then, 5 mg/mL 2,3-bis-(2-methoxy-4-nitro-5-sulfophenyl)-2H-tetrazolium-5-carboxanilide (XTT) in DMEM was added to the cells in the presence of 0.01% of N-methyl dibenzopyrazine methyl sulfate (PMS).

[10] = test system: TNF-α and IL-6; experiment: TNF-α and IL-6 levels in supernatant of SARS-COV-2-infected human primary monocytes; type: cell-based; conditions: 24 h
Description: as §2, §3

[11] = test system: SARS-COV-2; experiment: SARS-COV-2 viral RNA synthesis in Vero cells (real time RT-PCR); type: cell-based
[12] = test system: SARS-COV-2; experiment: SARS-COV-2 viral RNA synthesis in HuH-7 cells (real time RT-PCR); type: cell-based; conditions: for SI: Huh-7, CC50/EC50
[13] = Cytotoxicity assay (XTT) in Vero cells; type: cell-based; conditions: African green monkey
Description: as §1

[14] = Severe acute respiratory syndrome coronavirus 2
[15] = Calu-3, single moment treatment
[16] = Table 6, Calu-3, daily treatment
[17] = Table 6, Calu-3, single treatment
[18] = Severe acute respiratory syndrome coronavirus 2, Calu-3, 72 h, Calu-3 (MOI 0.5 72 h), daily treatment
[19] = Severe acute respiratory syndrome coronavirus 2, Calu-3, 72 h, Calu-3 (MOI 0.5 72 h), single moment treatment
[20] = Severe acute respiratory syndrome coronavirus 2, Calu-3, Table 6, Calu-3, daily treatment
[21] = Severe acute respiratory syndrome coronavirus 2, Calu-3, Table 6, Calu-3, single treatment
[22] = Severe acute respiratory syndrome coronavirus 2, Vero (MOI 0.01 24 h), read-out: EC50
[23] = Severe acute respiratory syndrome coronavirus 2, Huh-7 (MOI 0.1 48 h), read-out: EC50

Nc1ccc2cc3ccccc3cc2c1 [2-aminoanthracene, reference compound]
Mutagenicity ([1]; TA 102 +S9, positive control 5 μg/plate): +
Mutagenicity ([1]; TA 1535 +S9, positive control 2.5 μg/plate): +

O=P1(N(CCCl)CCCl)NCCCO1 (centres unmarked) [Cyclophosphamide, reference compound]
MNPCE/4,000 PCE (Mean ± S.D.) [2]: 16.20 ± 6.03

C[C@@H]1CCO[C@H]2Cn3cc(C(=O)NCc4ccc(F)cc4F)c(=O)c(O)c3C(=O)N12 [DTG, dolutegravir]
EC50 [3, 14]: 5.3 µM
effect on SARS-COV-2 replication [3]: marginal effects

COC(=O)N[C@H](C(=O)N1CCC[C@H]1c1nc(-c2ccc(-c3ccc(-c4c[nH]c([C@@H]5CCCN5C(=O)[C@@H](NC(=O)OC)C(C)C)n4)cc3)cc2)c[nH]1)C(C)C [Daclatasvir]
EC50 [3, 14]: 0.7 µM
EC90 [3, 14]: 3.8 µM

NC(=O)c1nc(F)c[nH]c1=O [Favipiravir]
EC50 [3, 14]: 7.8 µM

CC(C)OC(=O)[C@H](C)NP(=O)(OC[C@H]1O[C@@H](n2cnc3c(NCc4ccco4)ncnc32)[C@H](O)[C@@H]1O)Oc1ccccc1 (some centres unmarked) [MB-711, kinetin riboside monophosphoramidate]
CC50 at 3 days ([4]; Calu-3, daily treatment): 580 µM
CC50 at 3 days [4, 15]: 562 µM
CC50 at 3 days [4, 16]: 580 µM
CC50 at 3 days [4, 17]: 562 µM
inhibition of SARS-COV-2 RNA synthesis [5]: best profiles
effect of co-treatment with raltegravir or dolutegravir (iEXO) on inhibition of SARS-COV-2 [3]: synergistic
SI ([6]; Calu-3, daily treatment): 58000 µM
SI [6, 15]: 510
EC50 [6, 18]: 0.01 µM
EC90 [6, 18]: 3.8 µM
EC50 [6, 19]: 1.1 µM
EC90 [6, 19]: 9.2 µM
EC50 [6, 20]: 0.01 µM
EC90 [6, 20]: 3.8 µM
EC50 [6, 21]: 1.1 µM
EC90 [6, 21]: 9.2 µM
SI [6, 16]: 58,000
SI [6, 17]: 510

OC[C@H]1O[C@@H](n2cnc3c(NCc4ccco4)ncnc32)[C@H](O)[C@@H]1O [MB-801, kinetin riboside]
viral RNA levels/cell [7]: reduced
CC50 at 3 days [4, 16]: 530 µM
CC50 at 3 days [4, 17]: 550 µM
CC50 ([8]; Calu-3, daily treatment): 530 µM
CC50 [8, 15]: 550 µM
CC50 at 3 days [9]: 229 µM
inhibition of SARS-COV-2 RNA synthesis [5]: best profiles
SARS-CoV-2-induced enhancement of IL-6 levels in culture supernatant [10]: reduced
SARS-CoV-2-induced enhancement of TNF-α levels in culture supernatant [10]: reduced
EC50 [11, 22]: 8 µM
effect of co-treatment with raltegravir or dolutegravir (iEXO) on inhibition of SARS-COV-2 [3]: synergistic
SI ([6]; Calu-3, daily treatment): 26500 µM
SI [6, 15]: 3055
EC50 [6, 18]: 0.02 µM
EC90 [6, 18]: 3.7 µM
EC50 [6, 19]: 0.18 µM
EC90 [6, 19]: 7.2 µM
EC50 [6, 20]: 0.02 µM
EC90 [6, 20]: 3.7 µM
EC50 [6, 21]: 0.18 µM
EC90 [6, 21]: 7.2 µM
SI [6, 16]: 26,500
SI [6, 17]: 3.055
SI [12]: 2290
EC50 [12, 23]: 0.1 µM

c1coc(CNc2ncnc3c2ncn3C2CCCCO2)c1 (centres unmarked) [MB-906]
anti-coronavirus activity (SARS-COV-2 replication) [6]: not endowed with anti-coronavirus activity
anti-coronavirus activity (SARS-COV-2 replication) [12]: not endowed with anti-coronavirus activity

C/C(=C\CNc1ncnc2[nH]cnc12)CO [MB-907, zeatin]
CC50 at 3 days [9]: 600 µM
EC50 ([11]; Severe acute respiratory syndrome coronavirus 2, Vero, 24 h): 6 µM
EC50 ([12]; Severe acute respiratory syndrome coronavirus 2, Huh-7, 48 h): 0.05 µM

CC(C)C(=O)OC[C@H]1O[C@@H](n2ccc(NO)nc2=O)[C@H](O)[C@@H]1O [MK-4482, N-4-hydroxycytidine-5′-isopropyl ester, reference compound]
CC50 at 3 days [4, 16]: 58 µM
CC50 at 3 days [4, 17]: 58 µM
CC50 ([8]; Calu-3, daily treatment): 58 µM
EC99 mean [3]: 9 µM
EC50 [3, 14]: 0.8 µM
EC90 [3, 14]: 7 µM
efficiency impaired due to daily treatment ([6]; Calu-3): 2 times
SI ([6]; Calu-3, daily treatment): 2900 µM
EC50 [6, 18]: 0.02 µM
EC90 [6, 18]: 8.6 µM
EC50 [6, 20]: 0.02 µM
EC90 [6, 20]: 8.6 µM
EC50 [6, 21]: 0.72 µM
EC90 [6, 21]: 3.4 µM
SI [6, 16]: 2,900
SI [6, 17]: 80

COC(=O)N[C@H](C(=O)N1CCC[C@H]1C(=O)Nc1ccc([C@@H]2CC[C@@H](c3ccc(NC(=O)[C@@H]4CCCN4C(=O)[C@@H](NC(=O)OC)C(C)C)cc3)N2c2ccc(C(C)(C)C)cc2)cc1)C(C)C [Ombitasvir]
EC99 mean [3]: 18 µM
EC50 [3, 14]: 0.4 µM
EC90 [3, 14]: 3.3 µM

COC(=O)N[C@H](C(=O)N1CCC[C@H]1c1nc2cc([C@H]3CC[C@H](c4cc5nc([C@@H]6CCCN6C(=O)[C@@H](NC(=O)OC)[C@@H](C)OC)[nH]c5cc4F)N3c3cc(F)c(N4CCC(c5ccc(F)cc5)CC4)c(F)c3)c(F)cc2[nH]1)[C@@H](C)OC [Pibrentasvir]
EC99 mean [3]: 19 µM
EC50 [3, 14]: 0.7 µM
EC90 [3, 14]: 4.2 µM

Cc1nnc(C(=O)NC(C)(C)c2nc(C(=O)NCc3ccc(F)cc3)c(O)c(=O)n2C)o1 [RTG, raltegravir]
EC50 [3, 14]: 4.8 µM
effect on SARS-COV-2 replication [3]: marginal effects

CCC(CC)COC(=O)[C@H](C)N[P@](=O)(OC[C@H]1O[C@@](C#N)(c2ccc3c(N)ncnn23)[C@H](O)[C@@H]1O)Oc1ccccc1 [Remdesivir, reference compound]
CC50 at 3 days [4, 16]: 330 µM
CC50 at 3 days [4, 17]: 350 µM
CC50 at 3 days [9]: 280 µM
EC50 [11, 22]: 0.7 µM
SI ([11]; Vero, CC50/EC50): 757
EC99 mean [3]: 1.1 µM
EC50 [3, 14]: 0.09 µM
EC90 [3, 14]: 0.4 µM
CC50 at 3 days [13]: 530 µM
SI [6, 15]: 2300
EC50 [6, 18]: 0.01 µM
EC90 [6, 18]: 0.2 µM
EC50 [6, 19]: 0.15 µM
EC90 [6, 19]: 0.4 µM
EC50 [6, 20]: 0.01 µM
EC90 [6, 20]: 0.2 µM
EC50 [6, 21]: 0.15 µM
EC90 [6, 21]: 0.4 µM
SI [6, 16]: 3,3000
SI [6, 17]: 2.300
SI [12]: 46666
EC50 [12, 23]: 0.006 µM

C[C@H](Cn1cnc2c(N)ncnc21)OCP(=O)(O)O [Tenofovir]
EC50 [3]: 4.3 µM
effect of co-treatment with raltegravir or dolutegravir (iEXO) on inhibition of SARS-COV-2 [3]: enhanced efficiency

[N-]=[N+]=[N-] [sodium azide, reference compound]
Mutagenicity ([1]; TA 100 −S9, positive control 1.5 μg/plate): +
Mutagenicity ([1]; TA 1535 −S9, positive control 1.5 μg/plate): +

CC(C)OC(=O)[C@H](C)N[P@](=O)(OC[C@H]1O[C@@H](n2ccc(=O)[nH]c2=O)[C@](C)(F)[C@@H]1O)Oc1ccccc1 [sofosbuvir]
effect of co-treatment with raltegravir or dolutegravir (iEXO) on inhibition of SARS-COV-2 [3]: enhanced efficiency
